Measured values taken from patent publication US5185358A, “3-heteroatom containing urea and thiourea ACAT inhibitors” (Warner-Lambert Co., priority 1991, dated 1993).

Assays:
[1] = molecular target: T1, acyl-CoA:cholesterol acyltransferase (ACAT) (Oryctolagus cuniculus, UniProt G1SFD9); assay: In vitro ACAT inhibition: radiolabeled cholesterol oleate formed from radiolabeled oleic acid in rabbit intestinal microsomes; type: biochemical; details: concentration required to inhibit 50% activity of the enzyme
T1 sequence (G1SFD9 1-524): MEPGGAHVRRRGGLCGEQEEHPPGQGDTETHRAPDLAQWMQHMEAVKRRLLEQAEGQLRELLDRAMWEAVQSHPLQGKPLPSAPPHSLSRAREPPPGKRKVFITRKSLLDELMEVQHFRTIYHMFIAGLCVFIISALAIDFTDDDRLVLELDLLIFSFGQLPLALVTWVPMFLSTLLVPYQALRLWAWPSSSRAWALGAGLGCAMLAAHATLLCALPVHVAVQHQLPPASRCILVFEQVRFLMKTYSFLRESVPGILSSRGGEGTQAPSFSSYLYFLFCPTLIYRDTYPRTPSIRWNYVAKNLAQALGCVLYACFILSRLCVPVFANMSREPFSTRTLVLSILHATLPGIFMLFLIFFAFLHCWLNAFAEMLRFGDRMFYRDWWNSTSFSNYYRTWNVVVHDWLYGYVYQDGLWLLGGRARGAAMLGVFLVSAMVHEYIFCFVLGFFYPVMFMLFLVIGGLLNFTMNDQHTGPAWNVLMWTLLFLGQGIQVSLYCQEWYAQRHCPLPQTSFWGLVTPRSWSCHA
Procedure: The ability of representative compounds of the present invention to inhibit ACAT was measured using an in vitro test more fully described by Field, F. J. and Salone, R. G., in Biochemica et Biophysica 712:557-570 (1982). The test assesses the ability of a test compound to inhibit the acylation of cholesterol by oleic acid by measuring the amount of radiolabeled cholesterol oleate formed from radiolabeled oleic acid in a tissue preparation containing rabbit intestinal microsomes.

[2] = In vivo screen designated APCC: blood cholesterol in rats on chow supplemented with peanut oil, cholesterol and cholic acid; details: cholesterol in blood, male Sprague-Dawley rats, oral, 30 milligrams per kilogram, single dose 4 PM, blood samples 8 AM next day, vs vehicle control (CMC/Tween); for change in vivo at 30 mg/kg: Rattus norvegicus, 16 h, read-out: % Change (mg/dl)
Text: In one in vivo screen designated APCC, male Sprague-Dawley rats (200 to 225 g) were randomly divided into treatment groups and dosed orally at 4 PM with either vehicle (CMC/Tween) or suspensions of test compounds in vehicle. The control group received vehicle alone. Immediately after dosing, all animals received ad libitum a chow diet supplemented with peanut oil (5.5%), cholesterol (1.5%) and cholic acid (0.5%). The next day the animals were sacrificed at 8 AM to obtain blood samples for cholesterol analysis using standard procedures. Statistical differences between mean cholesterol values for the same vehicle were determined using analysis of variance followed by Fisher's least significant test. The compounds were administered at 30 milligrams per kilogram of body weight.

IC50 [1] [µM] | Compound | change in vivo at 30 mg/kg [2] [%] | % Change (mg/dl) [2] [%]
0.11 | CCCCCCCCCCCn1cnc(NC(=O)Nc2c(C(C)C)cccc2C(C)C)n1 [Example 8, N-[2,6-bis(1-methylethyl)phenyl]-N-(1-undecyl-1,2,4-triazol-3-yl)urea] | -39 | –
0.67 | CCCCCCCCCCCn1cnnc1NC(=O)Nc1c(C(C)C)cccc1C(C)C [Example 9, N-[2,6-bis(1-methylethyl)phenyl]-N'(4-undecyl-1,2,4-triazol-3-yl)urea] | -21 | –
1.5 | CCCCCCCCCCCCn1cnc(NC(=O)Nc2c(C(C)C)cccc2C(C)C)n1 [Example 11, N-[2,6-bis(1-methylethyl)phenyl]-N'-(1-dodecyl-1H-1,2,4-triazol-3-yl)urea] | -30 | –
0.6 | CCCCCCCCCCCCSc1nnc(NC(=O)Nc2c(C(C)C)cccc2C(C)C)n1C(C)=O [Example 13, 4-acetyl-N-[[[2,6-bis(1-methylethyl)phenyl]amino]carbonyl]-5-(dodecylthio)-4H-1,2,4-triazol-3-amine] | -41 | –
0.039 | CCCCCCCCCCCc1nnc(NC(=O)Nc2c(C(C)C)cccc2C(C)C)s1 [Example 18, N-[2,6-bis(1-methylethyl)phenyl]-N'-(5-undecyl-1,3,4-thiadiazol-2-yl)urea] | -44 | –
> 5 | Cc1nnc(NC(=O)Nc2c(C(C)C)cccc2C(C)C)s1 [Example 19, N-[2,6-bis(1-methylethyl)phenyl]-N'-(5-methyl-1,3,4-thiadiazol-2-yl)urea] | – | –
0.4 | CCCCCCCc1nnc(NC(=O)Nc2c(C(C)C)cccc2C(C)C)s1 [Example 20, N-[2,6-bis(1-methylethyl)phenyl]-N'-(5-heptyl-1,3,4-thiadiazol-2-yl)urea] | -25 | –
0.034 | CCCCCCCCCCCCc1nnc(NC(=O)Nc2c(C(C)C)cccc2C(C)C)s1 [Example 23, N-[2,6-bis(1-methylethyl)phenyl]-N'-(5-dodecyl-1,3,4-thiadiazol-2-yl)urea] | -32 | –
> 5 | CC(C)c1cccc(C(C)C)c1NC(=O)Nc1nc(-c2ccccc2)ns1 [Example 24, N-[2,6-Bis(1-methylethyl)phenyl]-N'-(3-phenyl-1,2,4-thiadiazol-5-yl)urea] | – | –
0.007 | CCCCCCCCCCCCCc1nc(NC(=O)Nc2c(C(C)C)cccc2C(C)C)no1 [Example 26, N-[2,6-bis(1-methylethyl)phenyl]-N'-[5-tridecyl-1,2,4-oxadiazol-3-yl]urea] | – | –
> 5 | CSc1nnc(NC(=O)Nc2c(C(C)C)cccc2C(C)C)[nH]1 [Example 27] | – | –

The remaining lines, values behind:

Compound | IC50 [1] [µM] | change in vivo at 30 mg/kg [2] [%] | % Change (mg/dl) [2] [%]
CCCCCCCCCCCc1nc(NC(=O)Nc2c(C(C)C)cccc2C(C)C)n(C(C)=O)n1 [Example 1, N-[2,6-bis(1-methylethyl)phenyl]-N'-(2-acetyl-5-undecyl-2H-1,2,4-triazol-3-yl)urea] | > 5 | -38 | –
CCCCCCCCCCCc1nc(NC(=O)Nc2c(C(C)C)cccc2C(C)C)n[nH]1 [Example 2, N-[2,6-bis(1-methylethyl)phenyl]-N'-(5-undecyl-1H-1,2,4-triazol-3-yl)urea] | > 5 | -31 | –
CCCCCCCCCCCCc1nc(NC(=O)Nc2c(C(C)C)cccc2C(C)C)n[nH]1 [Example 4, N-[2,6-bis(1-methylethyl)phenyl]-N'(5-dodecyl-1H-1,2,4-triazol-3-yl)urea] | – | 12 | –
CCCCCCCCCCCCCCc1nc(NC(=O)Nc2c(C(C)C)cccc2C(C)C)n[nH]1 [Example 6] | > 5 | -1 | –
CCCCCCCCCCCn1ncnc1NC(=O)Nc1c(C(C)C)cccc1C(C)C [Example 7, N-[2,6-bis(1-methylethyl)phenyl]-N'-(2-undecyl-2H-1,2,4-triazol-3-yl)urea] | 0.14 | -38 | –
CCCCCCCCCCCCn1cnnc1NC(=O)Nc1c(C(C)C)cccc1C(C)C [Example 12, N-[2,6-bis(1-methylethyl)phenyl]-N'-(4-dodecyl-4H-1,2,4-triazol-3-yl)urea] | – | -28 | –
CCCCCCCCCCCCCSc1nnc(NC(=O)Nc2c(C(C)C)cccc2C(C)C)n1C(C)=O [Example 14, 4-Acetyl-N-[[[2,6-bis(1-methylethyl)phenyl]amino]carbonyl]-5-(tridecylthio)-4H-1,2,4-triazol-3-amine] | – | -21 | –
CCCCCCCCCCCCCSc1nnc(NC(=O)Nc2c(C(C)C)cccc2C(C)C)[nH]1 [Example 15, N-[[[2,6-Bis(1-methylethyl)phenyl]amino]carbonyl]-5-(tridecylthio)-4H-1,2,4-triazol-3-amine] | – | 12 | –
CCCCCCCCCCCCC[S+]([O-])c1nc(NC(=O)Nc2c(C(C)C)cccc2C(C)C)n[nH]1 (stereo not shown) [Example 16, N-[2,6-Bis(1-methylethyl)phenyl]-N'-[5-(tridecylsulfinyl)-1H-1,2,4-triazol-3-yl]urea] | – | -6 | –
CCCCCCCCCCCCCS(=O)(=O)c1nnc(NC(=O)Nc2c(C(C)C)cccc2C(C)C)[nH]1 [Example 17] | – | -11 | –
CCCCCCCCCc1nnc(NC(=O)Nc2c(C(C)C)cccc2C(C)C)s1 [Example 21, N-[2,6-bis(1-methylethyl)phenyl]-N'-(5-nonyl-1,3,4-thiadiazol-2-yl)urea] | – | -45 | –
CCCCCCCCCCCCCc1nnc(NC(=O)Nc2c(C(C)C)cccc2C(C)C)s1 [Example 22, N-[2,6-bis(1-methylethyl)phenyl]-N'-(5-tridecyl-1,3,4-thiadiazol-2-yl)urea] | – | -8 | –
CCCCCCCCCCCCCc1nnc(NC(=O)Nc2c(C(C)C)cccc2C(C)C)o1 [Example 25, N-[2,6-bis(1-methylethyl)phenyl]-N'-(5-tridecyl-1,3,4-oxadiazol-2-yl)urea] | – | -62 | –
N-[2,6-bis(1-methylethyl)phenyl]-N'-(2-dodecyl-1H-1,2,4-triazol-5-yl)urea [Example 10] | 0.25 | – | -36
